We go through twelve compounds from ChEMBL document CHEMBL2440019, “Discovery of an in vivo chemical probe of the lysine methyltransferases G9a and GLP” (J Med Chem, 2013).

In one data set the test system is Liver. Nature of the data set: Half life in mouse liver microsomes. The data set is classed as ADME, Microsome.
Data set [1] has as its system Plasma. Briefly: Cmax in Swiss albino mouse plasma at 5 mg/kg, ip. It is filed as ADME, organism-based. Also on record: dose 5 mg/kg, route intraperitoneal. The note with it: in vivo.
For data set [2], the system named is Plasma. Nature of the data set: AUC (0 to 24 hrs) in Swiss albino mouse plasma at 5 mg/kg, ip. The data set is classed as ADME, organism-based. Also on record: time < 24 hr, dose 5 mg/kg, route intraperitoneal. Conditions: in vivo.
The target of data set [3] is T1, Histone-lysine N-methyltransferase EHMT2 (Homo sapiens, UniProt Q96KQ7).
T1 sequence (Q96KQ7 whole entry): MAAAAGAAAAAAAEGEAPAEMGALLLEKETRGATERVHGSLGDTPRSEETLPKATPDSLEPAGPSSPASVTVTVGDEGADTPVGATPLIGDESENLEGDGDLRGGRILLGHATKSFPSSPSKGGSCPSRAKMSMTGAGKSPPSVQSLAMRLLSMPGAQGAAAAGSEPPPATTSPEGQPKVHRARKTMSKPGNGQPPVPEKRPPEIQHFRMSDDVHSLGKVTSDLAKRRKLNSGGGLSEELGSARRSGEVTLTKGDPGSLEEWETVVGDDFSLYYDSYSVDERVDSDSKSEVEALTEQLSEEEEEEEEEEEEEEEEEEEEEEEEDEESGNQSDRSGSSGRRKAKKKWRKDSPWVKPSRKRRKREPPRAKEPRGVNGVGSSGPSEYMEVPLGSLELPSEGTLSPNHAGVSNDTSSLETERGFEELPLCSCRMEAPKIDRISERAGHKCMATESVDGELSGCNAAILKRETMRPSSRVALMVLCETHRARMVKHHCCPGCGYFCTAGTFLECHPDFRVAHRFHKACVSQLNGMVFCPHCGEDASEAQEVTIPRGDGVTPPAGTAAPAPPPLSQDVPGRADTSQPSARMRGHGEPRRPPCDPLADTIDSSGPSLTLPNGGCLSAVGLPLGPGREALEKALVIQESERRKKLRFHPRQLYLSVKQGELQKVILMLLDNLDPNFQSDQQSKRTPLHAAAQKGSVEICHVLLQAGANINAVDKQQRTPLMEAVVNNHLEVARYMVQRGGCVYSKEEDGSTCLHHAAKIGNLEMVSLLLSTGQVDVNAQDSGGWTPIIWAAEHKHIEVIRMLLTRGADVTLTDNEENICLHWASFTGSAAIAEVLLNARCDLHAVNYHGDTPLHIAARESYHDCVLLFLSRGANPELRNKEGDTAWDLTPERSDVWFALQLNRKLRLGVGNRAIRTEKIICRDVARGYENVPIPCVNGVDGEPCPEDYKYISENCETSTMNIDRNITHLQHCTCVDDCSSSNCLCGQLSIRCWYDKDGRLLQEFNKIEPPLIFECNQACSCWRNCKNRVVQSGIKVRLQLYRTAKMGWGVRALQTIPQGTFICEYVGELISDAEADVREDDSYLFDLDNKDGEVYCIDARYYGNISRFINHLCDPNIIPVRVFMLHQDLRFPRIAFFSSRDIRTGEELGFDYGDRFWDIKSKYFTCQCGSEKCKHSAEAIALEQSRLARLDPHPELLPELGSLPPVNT
Description: Inhibition of lysine methyltransferase G9a (unknown origin) using [3H]-SAM as substrate after 0.25 hrs by scintillation proximity assay

The test system of the next data set is MDA-MB-231. Briefly: cells. The note with it: Homo sapiens, MDA-MB-231, 48 h.
For data set [4], the target named is T1, Histone-lysine N-methyltransferase EHMT2. The source holds these as a separate data set.
Description: Inhibition of lysine methyltransferase G9a in human MDA-MB-231 cells assessed as reduction of H3K9me2 cellular level by immunofluorescence in-cell Western assay
A short description of data set [5]: Cmax in Swiss albino mouse brain at 5 mg/kg, ip. It is filed as ADME, organism-based. Also on record: dose 5 mg/kg, route intraperitoneal.
The nature of data set [6]: AUC (0 to 24 hrs) in Swiss albino mouse brain at 5 mg/kg, ip. It is filed as ADME, organism-based. Set-up: time < 24 hr, dose 5 mg/kg, route intraperitoneal.
The test system of the next data set is Nucleic Acid. Nature of the data set: Ratio of drug level in brain to plasma in Swiss albino mouse at 5 mg/kg, ip. It is filed as ADME, organism-based. Set-up: dose 5 mg/kg, route intraperitoneal.
In data set [7] the target is T2, Alpha-2C adrenergic receptor (Homo sapiens, UniProt P18825).
T2 sequence (P18825 whole entry): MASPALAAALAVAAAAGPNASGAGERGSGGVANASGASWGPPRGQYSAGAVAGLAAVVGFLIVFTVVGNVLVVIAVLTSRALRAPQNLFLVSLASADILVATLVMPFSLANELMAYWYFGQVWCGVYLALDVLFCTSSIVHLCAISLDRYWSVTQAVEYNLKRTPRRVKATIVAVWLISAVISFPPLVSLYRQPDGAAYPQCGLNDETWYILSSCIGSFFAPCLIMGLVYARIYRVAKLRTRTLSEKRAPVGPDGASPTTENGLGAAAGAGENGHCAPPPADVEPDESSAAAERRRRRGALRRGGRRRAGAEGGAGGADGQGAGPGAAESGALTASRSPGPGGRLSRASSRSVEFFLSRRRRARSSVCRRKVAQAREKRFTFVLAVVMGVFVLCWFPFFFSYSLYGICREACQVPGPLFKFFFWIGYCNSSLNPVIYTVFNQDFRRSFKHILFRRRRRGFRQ
Briefly: Binding affinity to adrenergic alpha2C receptor (unknown origin) by radioligand binding assay.

For a further data set, the system named is PC-3. Nature of the data set: Cytotoxicity against human PC3 cells after 48 hrs by Alamar Blue assay. The data set is classed as cell-based. Conditions: PC-3, 48 h.
Data set [8] can be described thus: Binding affinity to sigma 2 receptor (unknown origin) by radioligand binding assay. Set-up: species or system Homo sapiens.
Another data set concerns PANC-1. Nature of the data set: Cytotoxicity against human PANC1 cells after 48 hrs by Alamar Blue assay. The note with it: PANC-1, 48 h. The data set is classed as cell-based.
The test system of a further data set is U2OS. Briefly: Cytotoxicity against human U2OS cells after 48 hrs by Alamar Blue assay. It is filed as cell-based.
Data set [9] has as its target T3, Alpha-1D adrenergic receptor (Homo sapiens, UniProt P25100).
T3 sequence (P25100 whole entry): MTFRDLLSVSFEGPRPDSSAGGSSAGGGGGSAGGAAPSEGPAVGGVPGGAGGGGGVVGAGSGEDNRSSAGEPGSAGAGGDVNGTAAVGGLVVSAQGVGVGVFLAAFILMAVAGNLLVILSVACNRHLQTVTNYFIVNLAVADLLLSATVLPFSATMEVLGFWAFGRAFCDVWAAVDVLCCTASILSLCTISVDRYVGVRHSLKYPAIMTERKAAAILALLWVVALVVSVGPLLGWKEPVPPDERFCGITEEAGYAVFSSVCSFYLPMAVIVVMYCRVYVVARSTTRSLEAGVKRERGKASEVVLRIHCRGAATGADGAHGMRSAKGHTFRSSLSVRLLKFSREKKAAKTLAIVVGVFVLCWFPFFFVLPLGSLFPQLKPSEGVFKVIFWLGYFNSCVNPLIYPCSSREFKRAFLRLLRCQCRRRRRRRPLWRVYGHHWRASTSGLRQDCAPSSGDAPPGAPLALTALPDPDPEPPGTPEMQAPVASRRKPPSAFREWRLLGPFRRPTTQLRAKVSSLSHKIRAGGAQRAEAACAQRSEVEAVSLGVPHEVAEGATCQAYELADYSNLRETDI
Briefly: Binding affinity to adrenergic alpha1D receptor (unknown origin) by radioligand binding assay.

For the next data set, the target named is Histamine H3 receptor (Homo sapiens, UniProt Q9Y5N1). Briefly: Binding affinity to histamine H3 receptor (unknown origin) by radioligand binding assay.
Chain of Histamine H3 receptor (Q9Y5N1 whole entry): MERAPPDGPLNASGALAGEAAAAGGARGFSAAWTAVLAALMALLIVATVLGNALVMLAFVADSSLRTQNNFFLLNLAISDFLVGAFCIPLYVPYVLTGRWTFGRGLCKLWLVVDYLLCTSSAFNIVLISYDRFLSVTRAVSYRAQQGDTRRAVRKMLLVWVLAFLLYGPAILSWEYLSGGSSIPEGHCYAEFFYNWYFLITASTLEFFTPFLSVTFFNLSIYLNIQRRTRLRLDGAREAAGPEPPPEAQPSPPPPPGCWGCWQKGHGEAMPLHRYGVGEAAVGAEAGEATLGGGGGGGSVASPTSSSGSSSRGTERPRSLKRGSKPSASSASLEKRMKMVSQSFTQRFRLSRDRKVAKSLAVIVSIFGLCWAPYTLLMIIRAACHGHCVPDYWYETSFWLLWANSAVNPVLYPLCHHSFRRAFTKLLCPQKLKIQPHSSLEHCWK

Description for MDA-MB-231: Cytotoxicity against human MDA-MB-231 cells after 48 hrs by Alamar Blue assay

With `COc1cc2c(NC3CCN(C(C)C)CC3)nc(C3CCCCC3)nc2cc1OCCCN1CCCC1`, the t1/2 in the data set on Liver is 1.22 h. Further, in the data set on Plasma [1], the maximum concentration (Cmax) was 66 ng/mL. The compound further yielded an exposure (AUC) in the data set with Plasma [2] of 404 ng·h/mL.
Take `COc1cc2c(NC3CCN(C(C)C)CC3)nc(N3CCCCC3)nc2cc1OCCCN1CCCC1`: the IC50 in data set [3] is under 2.5 nM.
`COc1cc2c(NC3CCN(C(C)C)CC3)nc(N3CCCCCC3)nc2cc1OCCCN1CCCC1`: in data set [3], the IC50 was under 2.5 nM.
In turn, `COc1cc2c(NC3CCN(C(C)C)CC3)nc(C3CCOCC3)nc2cc1OCCCN1CCC(F)(F)CC1` came in with a t1/2 with Liver of 0.167 h. Further, the IC50 in [3] is over 50000 nM.
In [3], `COc1cc2c(NC3CCN(C(C)C)CC3)nc(C3CCCCC3)nc2cc1OCCCN1CCC(F)(F)CC1` had an IC50 of over 26000 nM.
Consider `COc1cc2c(NC3CCN(C(C)C)CC3)nc(C3CCOCC3)nc2cc1OCCCN1CCCC1`, for which, in the data set on Liver, the t1/2 turned out to be 0.267 h. Besides, the values for the IC50 in data set [3] and in [4] were 9 nM and 310 nM, respectively. The same compound had an EC50 in the data set on MDA-MB-231 of over 50000 nM.
For `COc1cc2c(NC3CCN(C4CC4)CC3)nc(N3CCS(=O)(=O)CC3)nc2cc1OCCCN1CCCC1`, the 50% inhibitory concentration (IC50) in data set [3] is 4 nM; in [4], 590 nM. Further, the EC50 with MDA-MB-231 is over 50000 nM.
`COc1cc2c(NC3CCN(C4CC4)CC3)nc(N3CCC(F)(F)CC3)nc2cc1OCCCN1CCCC1`: the IC50 in [3] is 3 nM; in data set [4], 310 nM. The compound also returned an EC50 in the data set on MDA-MB-231 of 14700 nM.
In the data set on Liver, `COc1cc2c(NC3CCN(C(C)C)CC3)nc(N3CC(F)(F)C(F)(F)C3)nc2cc1OCCCN1CCCC1` returned a t1/2 of over 1.5 h. Also, the IC50 in data set [3] was determined as 26 nM.
In data set [3], `COc1cc2c(NC3CCN(C(C)C)CC3)nc(N3CCS(=O)(=O)CC3)nc2cc1OCCCN1CCCC1` had an IC50 of 14 nM.
Turning to `COc1cc2c(NC3CCN(C(C)C)CC3)nc(N3CCOCC3)nc2cc1OCCCN1CCCC1`, the t1/2 with Liver is over 1.5 h. The Cmax came to 99 ng/mL in [5] and 731 ng/mL in the data set with Plasma [1]. In the data set on MDA-MB-231, this compound returned an EC50 of 23700 nM. Besides, in [6], the AUC(0-t) at 24 h was determined as 721 ng·h/mL. Moreover, in the data set with Nucleic Acid, the BPR was found to be 0.68. In the data set with Plasma [2], this compound came in with an AUC of 1061 ng·h/mL.
With `COc1cc2c(NC3CCN(C(C)C)CC3)nc(N3CCC(F)(F)CC3)nc2cc1OCCCN1CCCC1`, in the data set with Liver, the t1/2 was over 1.5 h. Also, the Ki in data set [7] is over 10000 nM; in [8], 900 nM; in [9], 4500 nM; on Histamine H3 receptor, 45 nM. In addition, the Cmax in data set [5] worked out at 68 ng/mL; in the data set with Plasma [1], 947 ng/mL. Also, the EC50 in the data set with MDA-MB-231 was 16700 nM; with PC-3 it was 8900 nM; in the data set on PANC-1, 3500 nM; in the data set on U2OS, 6000 nM. The same compound returned an area under the curve AUC(0-t) at 24 h in data set [6] of 412 ng·h/mL. Moreover, the BPR in the data set with Nucleic Acid worked out at 0.33. This compound also came in with an AUC in the data set with Plasma [2] of 1265 ng·h/mL.
